Data taken from article PMC8979514 (Journal of Enzyme Inhibition and Medicinal Chemistry, 2022).

Key:
in vitro [1] = assay type: cell-based, human; settings: human, Cells viability of SH-SY5Y cell line (% of control)
Protocol: (§1) Human neuroblastoma SH-SY5Y and human liver hepatocellular HepG2 cell lines were purchased from the American Type Culture Collections (ATCC). SH-SY5Y cells were cultured in a Dulbecco’s Modified Eagle Medium (DMEM) supplemented with Ham F12 medium (ratio 1:1), whereas HepG2 cells in Eagle’s Minimum Essential Medium (EMEM). Additionally, all culture medium was supplemented with 10% foetal bovine serum (FBS), streptomycin (100 µg/mL) and penicillin (100 U/mL). The cells were seeded into flasks containing supplemented medium and maintained in a humidified atmosphere of 5% CO2 and 95% air at 37 °C. The cell viability assay was performed in confluence of the cells in serum free medium (without FBS) was 80–90%.
(§2) […]. SH-SY5Y cells and HepG2 cells were seeded on 96-well plate with a density of 27–29 × 10^3 cells/well and 12–14 × 10^3/well respectively. […]. The DMSO concentration of every well in final dilutions was equal to or less than 0.1%. After incubation with compounds, MTT was added and 2 h later, the absorbance was measured at 492 nm. The result was expressed as the percentage of control cells (cultured in serum-free medium containing 0.1% of DMSO) which was set to 100%. The MTT test was performed in three independent replications. Data analysis was performed by using GraphPad Prism 5.0 Software.
SH-SY5Y a standard cell line used for determining neurocytotoxic effect of potential drug. Moreover it is well-established in vitro model of neurodegenerative disorders. […].

in vitro [2] = assay type: cell-based, human; settings: human
Protocol: as §1, §2
. HepG2 is a commonly used in vitro model for the investigation of hepatocytotoxic effect of xenobiotics [40]^,[41]. In our study, we evaluated the toxicity of our new analogs against […]. […]

[3] = cited from earlier work

What does the source list for Nc1c2c(nc3ccccc13)CCCC2 [Tacrine, 9-amino-1,2,3,4-tetrahydroacridine, reference compound]?
viability at 12.5 µM (in vitro [1]): 98.7 ± 4.5%; viability at 50 µM (in vitro [1]): 97.2 ± 2.1%; viability at 100 µM (in vitro [1]): 68.9 ± 2.9%; IC50 (in vitro [2]): 190 µM; bioavailability of the oral formulation [3]: 9.9–36.4%
